# Laboratory results reported in publication PMC7226045, “Ensartinib (X-396) Effectively Modulates Pharmacokinetic Resistance Mediated by ABCB1 and ABCG2 Drug Efflux Transporters and CYP3A4 Biotransformation Enzyme” (Cancers, 2020).
# Read-outs that look alike come from different tables or passages of the source.
# Columns and labels:
# MDCKII-parent cells = test: MTT proliferation / drug combination assay, MDCKII-parent; type: cell-based, canine; conditions: Canis lupus familiaris, 48 h
# Description: (§1) MTT proliferation assay was performed as described previously.
# MDCKII-ABCG2 cells = test: MTT proliferation / drug combination assay, MDCKII-ABCG2; type: cell-based, canine; conditions: Canis lupus familiaris, cytostatic alone or with 10 µM ensartinib, 48 h
# Description: as §1
# HL60-parent cells = test: XTT proliferation / drug combination assay, HL60-parent; type: cell-based, human; conditions: Homo sapiens, 48 h
# Description: The parent MDCKII and HL60 cells and their ABCB1-, ABCG2-, and ABCC1-overexpressing counterparts were seeded at the densities specified above onto 96-well culture plates and cultured for 24 h. The medium was subsequently replaced with serial dilutions of ensartinib alone or with various concentrations of a model MDR-susceptible cytostatic agent (daunorubicin or mitoxantrone) with or without 10 µM ensartinib. After 48 h incubation, the cells’ viability was determined as described above. In addition to performing IC50-shift analyses, the viability measurements were converted to FA (fraction of cells affected) values and the effects of drug combinations were quantified using the Chou-Talalay combination index (CI) method as implemented in CompuSyn 3.0.1 (ComboSyn Inc., Paramus, NJ, USA). The effects of concomitantly administered drugs were classified as synergistic (CI < 0.9), additive (0.9 < CI < 1.1), or antagonistic (CI > 1.1) based on the computed CI values [57].
# HL60-ABCG2 cells = test: XTT proliferation / drug combination assay, HL60-ABCG2; type: cell-based, human; conditions: Homo sapiens, cytostatic alone or with 10 µM ensartinib, 48 h
# Description: (§2) The MTT method is not readily adapted for use with suspension cell cultures, therefore the XTT assay was used to assess the proliferation of HL60 cells. Briefly, HL60-par, HL60-ABCB1, HL60-ABCG2, and HL60-ABCC1 cells were seeded at 2 × 10^4 cells/well in 96-well culture plates. Immediately after seeding, dilutions of the tested drugs or drug combinations were added to the cells. The plates were then incubated under standard conditions (37 °C, 5% CO2) for 48 h, after which XTT solution in PBS (1 mg/mL) and phenazine methosulfate (7.50 µg/mL) were added to the cells and the plates were incubated for another 5 h. Finally, the cells’ absorbance was measured at 450 nm using a microplate reader (Infinite M200, Tecan, Salzburg, Austria). This method was used to assess the effect of ABC transporters on sensitivity to ensartinib and in drug combination assays.
# (§3) Experiments focusing on the modulation of ABC transporter-mediated resistance were performed as described previously. The parent MDCKII and HL60 cells and their ABCB1-, ABCG2-, and ABCC1-overexpressing counterparts were seeded at the densities specified above onto 96-well culture plates and cultured for 24 h. The medium was subsequently replaced with serial dilutions of ensartinib alone or with various concentrations of a model MDR-susceptible cytostatic agent (daunorubicin or mitoxantrone) with or without 10 µM ensartinib. After 48 h incubation, the cells’ viability was determined as described above. In addition to performing IC50-shift analyses, the viability measurements were converted to FA (fraction of cells affected) values and the effects of drug combinations were quantified using the Chou-Talalay combination index (CI) method as implemented in CompuSyn 3.0.1 (ComboSyn Inc., Paramus, NJ, USA). The effects of concomitantly administered drugs were classified as synergistic (CI < 0.9), additive (0.9 < CI < 1.1), or antagonistic (CI > 1.1) based on the computed CI values.
# MDCKII-ABCB1 cells = test: MTT proliferation / drug combination assay, MDCKII-ABCB1; conditions: Canis lupus familiaris, 48 h
# Description: MTT proliferation assay was performed as described previously. Cells were seeded on a 96-well culture plate at densities (in units of cells/well) of 1.3 × 10^4 for MDCKII-par, MDCKII-ABCB1, MDCKII-ABCG2, and MDCKII-ABCC1; 1.2 × 10^4 for A431-par, A431-ABCB1, A431-ABCG2 and A431-ABCC1; 1.2 × 10^4 for NCI-H1299; 2.0 × 10^4 for Caco-2; 5.0 × 10^4 for LS174T; and 6.0 × 10^4 for HepG2-CYP3A4 and HepG2-EV. After seeding, the cells were cultured for 24 h, then the media was removed and the cells were treated with serial dilutions of a drug or drug combination for 48 h. Vehicles containing media and 40% DMSO in media served as 100% and 0% viability controls, respectively. Upon completion of the 48 h period, the cells were washed once with 1× PBS, the media was replaced with an MTT solution in Opti-MEM (1 mg/mL), and the cells were incubated under standard conditions for 60 min. MTT solution was carefully removed and the resulting formazan crystals were immediately solubilized in DMSO. The cells were then shaken gently for 10 min, after which absorbance of their lysate was measured at 570 nm and 690 nm using a microplate reader (Infinite M200, Tecan, Salzburg, Austria); background values obtained at 690 nm were subtracted from the measurements obtained at 570 nm. This method was used to assess the effect of ABC transporters on sensitivity to ensartinib, in drug combination assays, and to identify drug concentrations appropriate for use in induction studies.
# as §3
# HL60-ABCB1 cells = test: XTT proliferation / drug combination assay, HL60-ABCB1; conditions: Homo sapiens, 48 h
# Description: as §2, §3
# HepG2-CYP3A4 cells = test: Docetaxel combination assay (MTT), HepG2-CYP3A4; type: cell-based, human; conditions: 1 µM docetaxel
# Description: as §1
# (§4) Cell viability was measured after a 48 h incubation using the MTT method as described above. […] Sensitization effects of < 0%, 0%, and >0% indicate antagonism, additivity, and synergism, respectively.
# HepG2-EV cells = test: Docetaxel combination assay (MTT), HepG2-EV; type: cell-based, human; conditions: 1 µM docetaxel, <0% antagonism, =0% additivity, >0% synergism
# Description: as §1, §4
compound,measurement,setting,value
O=C1c2c(O)ccc(O)c2C(=O)c2c(NCCNCCO)ccc(NCCNCCO)c21 [mitoxantrone],IC50,"MDCKII-parent cells; MDCKII-parent, cytostatic alone or with 10 µM ensartinib, read-out: IC50",1590 nM
same,IC50,MDCKII-ABCG2 cells,9980 nM
same,IC50,"HL60-parent cells; HL60-parent, cytostatic alone or with 10 µM ensartinib, read-out: IC50",30.5 nM
same,IC50,HL60-ABCG2 cells,666 nM
COc1cccc2c1C(=O)c1c(O)c3c(c(O)c1C2=O)C[C@@](O)(C(C)=O)C[C@@H]3O[C@H]1C[C@H](N)[C@H](O)[C@H](C)O1 [daunorubicin],IC50,MDCKII-parent cells,947 nM
same,IC50,MDCKII-ABCB1 cells,11900 nM
same,IC50,HL60-parent cells,53.1 nM
same,IC50,HL60-ABCB1 cells,2390 nM
CC(=O)N1CCN(c2ccc(OCC3COC(Cn4ccnc4)(c4ccc(Cl)cc4Cl)O3)cc2)CC1 (centres unmarked) [ketoconazole],sensitization effect of combination with docetaxel,"HepG2-CYP3A4 cells; HepG2-CYP3A4, <0% antagonism, =0% additivity, >0% synergism",synergistic
same,sensitization effect of combination with docetaxel,HepG2-EV cells,antagonistic
CC(=O)O[C@@]12CO[C@@H]1C[C@H](O)[C@@]1(C)C(=O)[C@H](O)C3=C(C)[C@@H](OC(=O)[C@H](O)[C@@H](NC(=O)OC(C)(C)C)c4ccccc4)C[C@@](O)([C@@H](OC(=O)c4ccccc4)[C@H]21)C3(C)C [docetaxel],viability at 1 µM,"HepG2-CYP3A4 cells; Homo sapiens, 48 h, HepG2-CYP3A4 vs HepG2-EV, read-out: viability of CYP3A4-overexpressing cells greater than that of empty vector cells",24.4%
